In article PMC7887271, “Fast acting allosteric phosphofructokinase inhibitors block trypanosome glycolysis and cure acute African trypanosomiasis in mice” (Nature Communications, 2021):
Several values for one entry are separate records, joined by “and”; a condition that tells them apart may be missing. Equal values may be shown once.

Tests used:
TbPFK = target: T1, TbPFK (Trypanosoma brucei brucei, UniProt O15648); assay: ALDO/G3PDH/TIM linked enzyme assay for measuring PFK inhibition; type: biochemical; set-up: key: absorbance at 340 nm (NADH)
T1 construct: made in house; host or cells: Escherichia coli C41 (pET28a, codon optimised gene)
T1 sequence (O15648 1-487): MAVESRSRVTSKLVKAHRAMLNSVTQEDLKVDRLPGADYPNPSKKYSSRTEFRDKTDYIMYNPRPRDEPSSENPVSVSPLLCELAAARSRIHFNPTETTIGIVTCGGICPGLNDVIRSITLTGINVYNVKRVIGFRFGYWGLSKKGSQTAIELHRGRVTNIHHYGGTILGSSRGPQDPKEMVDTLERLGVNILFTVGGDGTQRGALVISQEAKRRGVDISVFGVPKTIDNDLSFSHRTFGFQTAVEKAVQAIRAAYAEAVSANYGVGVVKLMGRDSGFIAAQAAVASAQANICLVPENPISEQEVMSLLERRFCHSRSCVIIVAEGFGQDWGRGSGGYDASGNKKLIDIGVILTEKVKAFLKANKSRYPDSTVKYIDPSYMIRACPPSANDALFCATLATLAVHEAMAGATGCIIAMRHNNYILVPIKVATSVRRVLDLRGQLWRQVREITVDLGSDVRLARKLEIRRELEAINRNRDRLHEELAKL
Description: In the PFK/PYK/LDH assay, the linked PYK activity acts to convert the ADP produced by PFK back to ATP. As ATP is an inhibitor of human PFK (but not TbPFK) at concentrations higher than ~0.5 mM the regeneration of ATP is likely to affect the assay readout. An alternative linked assay was therefore developed using PFK/aldolase (ALDO)/glycerol-3-phosphate dehydrogenase (G3PD)/triosephosphate isomerase (TIM). In this assay F16BP produced by PFK is subsequently converted by aldolase into dihydroxyacetone phosphate (DHAP) and glyceraldehyde 3-phosphate (GA3P). TIM interconverts GA3P and DHAP, and DHAP is reduced to glycerol 3-phosphate by G3PD, alongside the oxidation of NADH to NAD^+, which was measured by observing the change in UV absorbance at 340 nm for 10 minutes at 25° C using a Spectramax© M5 Multimode plate reader.
The assay buffer consisted of 50 mM TEA, 100 mM KCl, 10 mM MgCl2, 10% glycerol, 1 mM Tris(2-carboxyethyl)phosphine (TCEP), pH 7.4. Assay mix consisted of 5 U/ml G3PD (Sigma-Aldrich G6880), 2.5 U/ml ALDO (Sigma-Aldrich A2714), 25 U/ml TIM (Sigma-Aldrich T6258), and 1.25 mM NADH. ATP and F6P were obtained from Sigma-Aldrich (A2383 and F3627, respectively). All ligands and substrates (including ATP) were used at pH 7.4). 40 µl of assay mix, followed by 45 µl assay buffer, 4 µl of 0.1 mg/ml PFK and 1 µl of 100x serially diluted inhibitors were added to a non-binding, clear 96-well plate (Greiner Bio-One 655901) and incubated at RT for 10 minutes. The reaction was started by addition of 10 µl of 6 mM F6P (Supplementary Table 1).

[1] = Experimentally determined pKa and logP (Pharmorphix); type: physicochemical
Description: pKa and […] values for selected CTCB compounds were determined experimentally by the company Pharmorphix (www.matthey.com) and calculated pKas were determined using ChemAxon.software (https://chemaxon.com).

[2] = test system: CYP3A4, CYP2D6, CYP2C9, CYP2C19, CYP1A2; assay: Inhibition of CYP450, five isoform panel; type: in vitro ADME; conditions: human, CYP450 isoform inhibition kit (BD Biosciences), 3A4, 2D6, 2C9, 2C19, 1A2, read-out: % inhibition of CYP450 isoforms
Description: A HepG2 cytotoxicity assay was used to determine a cellular selectivity index. HepG2 cells were seeded into 96-well plates in EMEM medium. Compounds were assessed for their effect upon cellular viability (Supplementary Methods 5.1). Inhibition of CYP450 was determined using kits from BD Biosciences (Supplementary Methods 5.2). Metabolic stability was determined using mouse […] tested at a single concentration of 5 µM. Plasma protein binding was determined using mouse and human plasma at a single concentration of 10 µM (Supplementary Methods 5.4). All PK studies in mice were carried out by Pharmidex (Supplementary Methods 6.1).
The compounds were investigated for their inhibitory effect on cytochrome P450 (CYP450) activity using five CYP450 isoforms (with fluorescent substrates in brackets): 3A4 (two substrates, BFC and DBF), 2D6 (AMMC), 2C9 (MFC), 2C19 (CEC) and 1A2 (CEC). Kits from BD Biosciences were used along with the method described by the manufacturer. […] Fluorescence was measured using a SpectraMax M5 plate reader.

CN(C)CCn1ccc2c(ccn2Cc2ccc(Cl)c(Cl)c2)c1=O [CTCB 405]
TbPFK reaction time course reading (Figure 6a) (TbPFK; 0.02 uM CTCB 405, time 0.104167): 0.5676 and 0.5291
TbPFK reaction time course reading (Figure 6a) (TbPFK; 0.02 uM CTCB 405, time 0.121528): 0.545 and 0.5077
TbPFK reaction time course reading (Figure 6a) (TbPFK; 0.02 uM CTCB 405, time 0.138889): 0.5241 and 0.488
TbPFK reaction time course reading (Figure 6a) (TbPFK; 0.02 uM CTCB 405, time 0.15625): 0.5057 and 0.4696
TbPFK reaction time course reading (Figure 6a) (TbPFK; 0.02 uM CTCB 405, time 0.173611): 0.4873 and 0.4524
TbPFK reaction time course reading (Figure 6a) (TbPFK; 0.02 uM CTCB 405, time 0.190972): 0.4705 and 0.4366
TbPFK reaction time course reading (Figure 6a) (TbPFK; 0.05 uM CTCB 405, time 0.104167): 0.6118 and 0.5698
TbPFK reaction time course reading (Figure 6a) (TbPFK; 0.05 uM CTCB 405, time 0.121528): 0.5919 and 0.5511
TbPFK reaction time course reading (Figure 6a) (TbPFK; 0.05 uM CTCB 405, time 0.138889): 0.5731 and 0.5324
TbPFK reaction time course reading (Figure 6a) (TbPFK; 0.05 uM CTCB 405, time 0.15625): 0.5537 and 0.5159
TbPFK reaction time course reading (Figure 6a) (TbPFK; 0.05 uM CTCB 405, time 0.173611): 0.5368 and 0.4994
TbPFK reaction time course reading (Figure 6a) (TbPFK; 0.05 uM CTCB 405, time 0.190972): 0.5212 and 0.4835
TbPFK reaction time course reading (Figure 6a) (TbPFK; 0.43 uM CTCB 405, time 0.104167): 0.7703 and 0.7388
TbPFK reaction time course reading (Figure 6a) (TbPFK; 0.43 uM CTCB 405, time 0.121528): 0.7663 and 0.7359
TbPFK reaction time course reading (Figure 6a) (TbPFK; 0.43 uM CTCB 405, time 0.138889): 0.7635 and 0.7314
TbPFK reaction time course reading (Figure 6a) (TbPFK; 0.43 uM CTCB 405, time 0.15625): 0.7593 and 0.7286
TbPFK reaction time course reading (Figure 6a) (TbPFK; 0.43 uM CTCB 405, time 0.173611): 0.7551 and 0.7249
TbPFK reaction time course reading (Figure 6a) (TbPFK; 0.43 uM CTCB 405, time 0.190972): 0.7517 and 0.7206
TbPFK reaction time course reading (Figure 6a) (TbPFK; 0.43 uM CTCB 405, time 0.208333): 0.7473 and 0.7169
TbPFK reaction time course reading (Figure 6a) (TbPFK; 1.29 uM CTCB 405, time 0.104167): 0.8081 and 0.7679
TbPFK reaction time course reading (Figure 6a) (TbPFK; 1.29 uM CTCB 405, time 0.121528): 0.808 and 0.7688
TbPFK reaction time course reading (Figure 6a) (TbPFK; 1.29 uM CTCB 405, time 0.138889): 0.8069 and 0.768
TbPFK reaction time course reading (Figure 6a) (TbPFK; 1.29 uM CTCB 405, time 0.15625): 0.8064 and 0.7673
TbPFK reaction time course reading (Figure 6a) (TbPFK; 1.29 uM CTCB 405, time 0.173611): 0.8063 and 0.7675
TbPFK reaction time course reading (Figure 6a) (TbPFK; 1.29 uM CTCB 405, time 0.190972): 0.8048 and 0.7672
TbPFK reaction time course reading (Figure 6a) (TbPFK; 3.88 uM CTCB 405, time 0.104167): 0.8165 and 0.7707
TbPFK reaction time course reading (Figure 6a) (TbPFK; 3.88 uM CTCB 405, time 0.121528): 0.8167 and 0.7708
TbPFK reaction time course reading (Figure 6a) (TbPFK; 3.88 uM CTCB 405, time 0.138889): 0.8177 and 0.7708
TbPFK reaction time course reading (Figure 6a) (TbPFK; 3.88 uM CTCB 405, time 0.15625): 0.8174 and 0.7711
TbPFK reaction time course reading (Figure 6a) (TbPFK; 3.88 uM CTCB 405, time 0.173611): 0.8172 and 0.7718
TbPFK reaction time course reading (Figure 6a) (TbPFK; 3.88 uM CTCB 405, time 0.190972): 0.8172 and 0.7712
TbPFK reaction time course reading (Figure 6a) (TbPFK; 11.66 uM CTCB 405, time 0.104167): 0.818 and 0.7732
TbPFK reaction time course reading (Figure 6a) (TbPFK; 11.66 uM CTCB 405, time 0.121528): 0.8194 and 0.7744
TbPFK reaction time course reading (Figure 6a) (TbPFK; 11.66 uM CTCB 405, time 0.138889): 0.8194 and 0.7745
TbPFK reaction time course reading (Figure 6a) (TbPFK; 11.66 uM CTCB 405, time 0.15625): 0.8194 and 0.7742
TbPFK reaction time course reading (Figure 6a) (TbPFK; 11.66 uM CTCB 405, time 0.173611): 0.8203 and 0.7754
TbPFK reaction time course reading (Figure 6a) (TbPFK; 11.66 uM CTCB 405, time 0.190972): 0.82 and 0.776
TbPFK reaction time course reading (Figure 6a) (TbPFK; 35 uM CTCB 405, time 0.104167): 0.7782 and 0.7773
TbPFK reaction time course reading (Figure 6a) (TbPFK; 35 uM CTCB 405, time 0.121528): 0.7782 and 0.776
TbPFK reaction time course reading (Figure 6a) (TbPFK; 35 uM CTCB 405, time 0.138889): 0.7789 and 0.7774
TbPFK reaction time course reading (Figure 6a) (TbPFK; 35 uM CTCB 405, time 0.15625): 0.7788 and 0.7781
TbPFK reaction time course reading (Figure 6a) (TbPFK; 35 uM CTCB 405, time 0.173611): 0.779 and 0.7789
TbPFK reaction time course reading (Figure 6a) (TbPFK; 35 uM CTCB 405, time 0.190972): 0.7794 and 0.7785

CN(C)CCn1ccc2c(ccn2Cc2ccc(Cl)c(Cl)c2)c1=O [CTCB-405, 1-[(3,4-Dichlorophenyl)methyl]-5-[2-(dimethylamino)ethyl] pyrrolo[3,2-c]pyridin-4-one]
logP ([1]; read-out: Measured logP): 3.29
pKa ([1]; read-out: Measured pKa): 8.09

CN(C)CCn1ccc2c(ccn2Cc2ccc(F)c(Br)c2)c1=O [CTCB-508, 1-[(3-Bromo-4-fluorophenyl)methyl]-5-[2-(dimethylamino)ethyl] pyrrolo[3,2-c]pyridin-4-one]
inhibition at 10 µM [2]: ≤ 10%
